Reference: US4011390A, “Semi-synthetic aminocyclitol aminoglycoside antibiotics and methods for the preparation thereof” (Schering-Plough Corporation, priority 1974, dated 1977)

Assays:
Format in all cases: cell-based
Klebsiella pneumoniae [1] = experiment: Activity against resistant strains; conditions: gentamicin, tobramycin and kanamycin resistant adenylylating strains
Excerpt: (§1) In many instances, bacterial resistance is related to the organism's ability to inactivate the antibacterial agent via enzymatic (biochemical) means. Some species inactivate aminoglycosides antibiotics by acetylating the antibacterial agent, others by phosphorylation and still others by adenylylating. Some strains have several different inactivating capabilities. Further, the inactivation reactions occur at a specific site or sites on the antibacterial agent. We have shown by the compounds of this invention that alteration of sites on the antibiotic molecule not directly involved in inactivation processes can nevertheless frustrate these inactivation processes. […] The tables illustrate that the mutamicins include compounds which are active against strains having different mechanisms of inactivation of gentamicin, sisomicin, kanamycin, neomycin and torbramycin. For example, some mutamicins are effective against strains of E. coli which contain adenylylating R factors such as E. coli W677/R55 and LA290/R55. These E. coli strains are resistant to gentamicin, sisomicin and torbramycin. Some are also effective against gentamicin, tobramycin and kanamycin resistant adenylylating strains of Klebsiella pneumoniae and also kanamycin, neomycin phosphorylating strains of E. coli and Klebsiella pneumoniae. Further, some mutamicins are effective against gentamicin and sisomicin resistant strains of Pseudomonas aeruginosa and gentamicin, sisomicin, tobramycin resistant Providence which is sensitive to kanamycin. Thus, the mutamicins afford a means for combatting strains of bacteria which have already developed a variety of mechanisms for resisting the action of many of the antibiotics known in the art or currently in commercial use.

Pseudomonas aeruginosa [2] = experiment: Activity against resistant strains; conditions: gentamicin and sisomicin resistant strains
Excerpt: as §1

E. coli = experiment: Activity against resistant strains; conditions: E. coli W677/R55 and LA290/R55
Excerpt: as §1

Providence = experiment: Activity against resistant strains; conditions: gentamicin, sisomicin, tobramycin resistant Providence
Excerpt: as §1

Klebsiella pneumoniae [3] = experiment: Disc test, Bauer-Kirby technique with 10 Mcg. discs
Excerpt: (§2) Disc Test Results (Replicate Tests) With The Mutamicins, Sisomicin and
(§3) Bauer-Kirby Technique^1 With 10 Mcg. Discs
(§4) ^1 Bauer, Kirby, Sherris and Turck, American Journal of Clinical

Pseudomonas aeruginosa [4] = experiment: as above
Excerpt: as §2, §3, §4

Staphylococcus aureus = experiment: as above
Excerpt: as §2, §3, §4

Streptococcus pyogenes = experiment: as above
Excerpt: as §2, §3, §4

Escherichia coli = experiment: as above; conditions: 10 Mcg. discs
Excerpt: as §2, §3, §4

Bacillus subtilis = experiment: as above; conditions: strain ATCC 6633
Excerpt: as §2, §3, §4

Providence 164 = experiment: as above; conditions: strain 164
Excerpt: as §2, §3, §4

## gentamicin [reference compound]
Klebsiella pneumoniae [1]
  activity against resistant adenylylating strains: resistant
Pseudomonas aeruginosa [2]
  activity against resistant strains: resistant
E. coli
  activity against strains containing adenylylating R factors: resistant
Providence
  activity against resistant Providence: resistant
Klebsiella pneumoniae [3]; strain Ad 17
  Zone Size: 22 mm
Klebsiella pneumoniae [3]; strain Ad 18
  Zone Size: 25 mm
Klebsiella pneumoniae [3]; strain Georgetown 3020
  Zone Size: 11 mm
Klebsiella pneumoniae [3]; strain Georgetown 3694
  Zone Size: 13 mm
Pseudomonas aeruginosa [4]; strain Capetown 18
  Zone Size: 12 mm
Pseudomonas aeruginosa [4]; strain D-2
  Zone Size: 23 mm
Pseudomonas aeruginosa [4]; strain St. Michael 413
  Zone Size: 26 mm
Pseudomonas aeruginosa [4]; strain St. Michael 762
  Zone Size: 24 mm
Pseudomonas aeruginosa [4]; strain St. Michael 1262
  Zone Size: 25 mm
Pseudomonas aeruginosa [4]; strain St. Michael 1395
  Zone Size: 26 mm
Pseudomonas aeruginosa [4]; strain Stone 20
  Zone Size: 27 mm
Pseudomonas aeruginosa [4]; strain Stone 39
  Zone Size: 25 mm
Pseudomonas aeruginosa [4]; strain Stone 130
  Zone Size: 12 mm
Pseudomonas aeruginosa [4]; strain Stone 138
  Zone Size: 10 mm
Staphylococcus aureus; strain 59N
  Zone Size: 28 mm
Staphylococcus aureus; strain ATCC 6538P
  Zone Size: 25 mm
Staphylococcus aureus; strain Wood
  Zone Size: 27 mm
Staphylococcus aureus; strain Ziegler
  Zone Size: 26 mm
Streptococcus pyogenes; strain B-Cruz
  Zone Size: 16 mm
Streptococcus pyogenes; strain C
  Zone Size: 13 mm
Escherichia coli; strain 589
  Zone Size: 23 mm
Escherichia coli; strain ATCC 10536
  Zone Size: 28 mm
Escherichia coli; strain JR88
  Zone Size: 11 mm
Escherichia coli; strain JR90
  Zone Size: 0 mm
Escherichia coli; strain LA290/R55
  Zone Size: 12 mm
Escherichia coli; strain Swidinsky 4195
  Zone Size: 23 mm
Escherichia coli; strain W677/R55
  Zone Size: 13 mm
Bacillus subtilis
  Zone Size: 31 mm
Providence 164
  Zone Size: 11 mm
